Structures are written as SMILES. Where two headings read alike, the source gives them in different places. Where only a bound is given, the exact number is not on record here.

In general, EC50 refers to the midpoint of the concentration-response curve.

The target in assay [1] is T1, human CB2 receptors (Homo sapiens, UniProt P34972).
T1 construct: expressed in transfected cells; host or cells: CHO cells
As to the kind of experiment: cAMP assay, human CB2. It counts as cell-based. The protocol: (§1) CHO cells expressing human CB1 or CB2 receptors are seeded 17-24 hours prior to the experiment 50.000 cells per well in a black 96 well plate with flat clear bottom (Corning Costar #3904) in DMEM (Invitrogen No. 31331), lx HT supplement, with 10% fetal calf serum and incubated at 5% CO2 and 37° C. in a humidified incubator. The growth medium was exchanged with Krebs Ringer Bicarbonate buffer with 1 mM IBMX and incubated at 30° C. for 30 min. Compounds were added to a final assay volume of 100 μl and incubated for 30 min at 30° C. Using the cAMP-Nano-TRF detection kit the assay (Roche Diagnostics) was stopped by the addition of 50 μl lysis reagent (Tris, NaCl, 1.5% Triton X100, 2.5% NP40, 10% NaN3) and 50 μl detection solutions (20 μM mAb Alexa700-cAMP 1:1, and 48 μM Ruthenium-2-AHA-cAMP) and shaken for 2 h at room temperature. The time-resolved energy transfer is measured by a TRF reader (Evotec Technologies GmbH), equipped with a ND:YAG laser as excitation source. The plate is measured twice with the excitation at 355 nm and at the emission with a delay of 100 ns and a gate of 100 ns, total exposure time 10 s at 730 (bandwidth 30 nm) or 645 nm (bandwidth 75 nm), respectively. The FRET signal is calculated as follows: FRET=T730-Alexa730-P(T645-B645) with P=Ru730-B730/Ru645-B645, where T730 is the test well measured at 730 nM, T645 is the test well measured at 645 nm, B730 and B645 are the buffer controls at 730 nm and 645 nm, respectively. cAMP content is determined from the function of a standard curve spanning from 10 μM to 0.13 nM cAMP.
(§2) EC50 values were determined using Activity Base analysis (ID Business Solution, Limited). The EC50 values for a wide range of cannabinoid agonists generated from this assay were in agreement with the values published in the scientific literature.
On the technique in general: cAMP levels reflect the balance of adenylyl cyclase and phosphodiesterase activity.

The target of assay [2] is T2, human CB1 receptors (Homo sapiens, UniProt P21554).
T2 construct: expressed in transfected cells; host or cells: CHO cells
T2 sequence (P21554 whole entry): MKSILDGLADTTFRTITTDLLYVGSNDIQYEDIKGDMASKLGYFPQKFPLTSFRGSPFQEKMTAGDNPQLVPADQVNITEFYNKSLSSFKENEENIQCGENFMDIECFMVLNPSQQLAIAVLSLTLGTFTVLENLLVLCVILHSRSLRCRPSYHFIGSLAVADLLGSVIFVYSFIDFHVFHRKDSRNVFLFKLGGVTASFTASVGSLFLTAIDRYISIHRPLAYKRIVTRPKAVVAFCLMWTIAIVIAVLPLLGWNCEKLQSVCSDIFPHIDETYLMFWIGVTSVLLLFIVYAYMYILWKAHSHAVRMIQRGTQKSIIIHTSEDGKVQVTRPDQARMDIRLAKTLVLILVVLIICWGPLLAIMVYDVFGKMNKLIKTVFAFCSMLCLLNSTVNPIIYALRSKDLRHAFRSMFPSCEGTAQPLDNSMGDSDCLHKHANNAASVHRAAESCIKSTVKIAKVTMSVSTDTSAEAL
As to the kind of experiment: cAMP assay, human CB1. It counts as cell-based. How it is done:
as §1, §2

[3] abbreviates: functional cAMP assay, CHO cells expressing human CB2, read-out: Ec50: CB2 - hu cAMP.
[4] abbreviates: functional cAMP assay, CHO cells expressing human CB1, read-out: Ec50: CB1 - hu cAMP.

T1 sequence (P34972 whole entry): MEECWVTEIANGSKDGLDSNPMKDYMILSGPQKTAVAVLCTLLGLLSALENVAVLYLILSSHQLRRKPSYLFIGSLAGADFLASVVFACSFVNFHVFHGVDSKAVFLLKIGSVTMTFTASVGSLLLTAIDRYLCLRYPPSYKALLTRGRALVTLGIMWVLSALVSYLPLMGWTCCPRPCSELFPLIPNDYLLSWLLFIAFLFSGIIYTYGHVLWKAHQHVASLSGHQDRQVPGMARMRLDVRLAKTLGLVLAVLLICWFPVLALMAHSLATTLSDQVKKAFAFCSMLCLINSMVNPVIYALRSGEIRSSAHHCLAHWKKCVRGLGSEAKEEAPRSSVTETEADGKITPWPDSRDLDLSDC

`COc1ccc(CCN(C)C(=O)n2nnn(-c3cccc(F)c3)c2=O)cc1OC` [Example 1, 4-(3-Fluoro-phenyl)-5-oxo-4,5-dihydro-tetrazole-1-carboxylic acid [2-(3,4-dimethoxy-phenyl)-ethyl]-methyl-amide]: the EC50 is 0.6 nM in assay [1] (setting [3]) and above 10000 nM in assay [2] (setting [4]).
Turning to `CN(CCC#N)C(=O)n1nnn(-c2cccc(F)c2)c1=O` [Example 2, 4-(3-Fluoro-phenyl)-5-oxo-4,5-dihydro-tetrazole-1-carboxylic acid (2-cyano-ethyl)-methyl-amide], the values for the EC50 in assay [1] (setting [3]) and in assay [2] (setting [4]) were 11.5 nM and above 10000 nM, respectively.
As for `NC(=O)C1CCCN(C(=O)n2nnn(-c3cccc(F)c3)c2=O)C1` (centres unmarked) [Example 3, 1-[4-(3-Fluoro-phenyl)-5-oxo-4,5-dihydro-tetrazole-1-carbonyl]-piperidine-3-carboxylic acid amide], the EC50 was 15.9 nM in assay [1] (setting [3]) and above 10000 nM in assay [2] (setting [4]).
As to `O=C(N1CCOCC1)n1nnn(-c2cccc(F)c2)c1=O` [Example 4, 1-(3-Fluoro-phenyl)-4-(morpholine-4-carbonyl)-1,4-dihydro-tetrazol-5-one], the EC50 is 3 nM in assay [1] (setting [3]) and above 10000 nM in assay [2] (setting [4]).
As to `CN(CCc1ccccc1)C(=O)n1nnn(-c2cccc(F)c2)c1=O` [Example 5, 4-(3-Fluoro-phenyl)-5-oxo-4,5-dihydro-tetrazole-1-carboxylic acid methyl-phenethyl-amide], the EC50 was 0.8 nM in assay [1] (setting [3]) and above 10000 nM in assay [2] (setting [4]).
The corresponding values for `CCN(Cc1ccncc1)C(=O)n1nnn(-c2cccc(F)c2)c1=O` [Example 6, 4-(3-Fluoro-phenyl)-5-oxo-4,5-dihydro-tetrazole-1-carboxylic acid ethyl-pyridin-4-ylmethyl-amide] are 0.8 nM and above 10000 nM.
On to `CCN(CCOC)C(=O)n1nnn(-c2cccc(F)c2)c1=O` [Example 7, 4-(3-Fluoro-phenyl)-5-oxo-4,5-dihydro-tetrazole-1-carboxylic acid ethyl-(2-methoxy-ethyl)-amide], for which the EC50 in assay [1] is 2.7 nM; in assay [2] it was above 10000 nM.
As to `CN(CCCc1ccccc1)C(=O)n1nnn(-c2cccc(F)c2)c1=O` [Example 8, 4-(3-Fluoro-phenyl)-5-oxo-4,5-dihydro-tetrazole-1-carboxylic acid methyl-(3-phenyl-propyl)-amide], the results for the EC50 in assay [1] (setting [3]) and in assay [2] (setting [4]) were 1.2 nM and above 10000 nM, respectively.
The corresponding values for `O=C(N1CCCC1Cc1ccccc1)n1nnn(-c2cccc(F)c2)c1=O` (centres unmarked) [Example 9, 1-(2-Benzyl-pyrrolidine-1-carbonyl)-4-(3-fluoro-phenyl)-1,4-dihydro-tetrazol-5-one] are 4.1 nM and above 10000 nM.
The corresponding values for `O=C(N1CCCC1c1ccc(F)cc1)n1nnn(-c2cccc(F)c2)c1=O` (centres unmarked) [Example 10, 1-(3-Fluoro-phenyl)-4-[2-(4-fluoro-phenyl)-pyrrolidine-1-carbonyl]-1,4-dihydro-tetrazol-5-one] are 5.9 nM and above 10000 nM.
As to `O=C(N1CCc2cc(F)ccc2C1)n1nnn(-c2cccc(F)c2)c1=O` [Example 11, 1-(6-Fluoro-3,4-dihydro-1H-isoquinoline-2-carbonyl)-4-(3-fluoro-phenyl)-1,4-dihydro-tetrazol-5-one], the EC50 is 78.9 nM in assay [1] (setting [3]) and above 10000 nM in assay [2] (setting [4]).
As for `CCN(Cc1ccccc1)C(=O)n1nnn(-c2cccc(F)c2)c1=O` [Example 12, 4-(3-Fluoro-phenyl)-5-oxo-4,5-dihydro-tetrazole-1-carboxylic acid benzyl-ethyl-amide], the EC50 in assay [1] was 0.6 nM; in assay [2], above 10000 nM.
For the compound `CC[C@H](C)[C@@H](C(=O)OC)N(C)C(=O)n1nnn(-c2cccc(F)c2)c1=O` [Example 13, (2S,3S)-2-{[4-(3-Fluoro-phenyl)-5-oxo-4,5-dihydro-tetrazole-1-carbonyl]-methyl-amino}-3-methyl-pentanoic acid methyl ester], the EC50 in assay [1] (setting [3]) was 11.2 nM; in assay [2] (setting [4]), above 10000 nM.
Consider `O=c1n(Cc2ccc(F)cc2)nnn1-c1cccc(F)c1` [Example 14, 1-(4-Fluoro-benzyl)-4-(3-fluoro-phenyl)-1,4-dihydro-tetrazol-5-one], for which the EC50 is 1180 nM in assay [1] (setting [3]) and above 10000 nM in assay [2] (setting [4]).
As to `CC(C)(C)OC(=O)N1CCC(n2nnn(-c3cccc(F)c3)c2=O)CC1` [Example 15, 4-[4-(3-Fluoro-phenyl)-5-oxo-4,5-dihydro-tetrazol-1-yl]-piperidine-1-carboxylic acid tert-butyl ester], the EC50 is 3000 nM in assay [1] (setting [3]) and above 10000 nM in assay [2] (setting [4]).
With `CCOC(=O)C(C)(C)n1nnn(-c2cccc(F)c2)c1=O` [Example 16, 2-[4-(3-Fluoro-phenyl)-5-oxo-4,5-dihydro-tetrazol-1-yl]-2-methyl-propionic acid ethyl ester], the EC50 in assay [1] (setting [3]) was 327 nM; in assay [2] (setting [4]) it was above 10000 nM.
For `Cn1c(Cn2nnn(-c3cccc(F)c3)c2=O)nnc1S(C)(=O)=O` [Example 17, 1-(3-Fluoro-phenyl)-4-(5-methanesulfonyl-4-methyl-4H-[1,2,4]triazol-3-ylmethyl)-1,4-dihydro-tetrazol-5-one], the EC50 is 898 nM in assay [1] (setting [3]) and above 10000 nM in assay [2] (setting [4]).
Consider `Cn1nccc1C1CCCN1C(=O)n1nnn(-c2cccc(F)c2)c1=O` (centres unmarked) [Example 18, 1-(3-Fluoro-phenyl)-4-[2-(2-methyl-2H-pyrazol-3-yl)-pyrrolidine-1-carbonyl]-1,4-dihydro-tetrazol-5-one], for which the EC50 in assay [1] (setting [3]) was 219 nM; in assay [2] (setting [4]), above 10000 nM.
For `Cn1ccc(C2CCCN2C(=O)n2nnn(-c3cccc(F)c3)c2=O)n1` (centres unmarked) [Example 19, 1-(3-Fluoro-phenyl)-4-[2-(1-methyl-1H-pyrazol-3-yl)-pyrrolidine-1-carbonyl]-1,4-dihydro-tetrazol-5-one], in that order: 25 nM and above 10000 nM.
For `Cc1cc(C2CCCN2C(=O)n2nnn(-c3cccc(F)c3)c2=O)on1` (centres unmarked) [Example 20, 1-(3-Fluoro-phenyl)-4-[2-(3-methyl-isoxazol-5-yl)-pyrrolidine-1-carbonyl]-1,4-dihydro-tetrazol-5-one], in that order: 6.9 nM and above 10000 nM.
Turning to `COC[C@@H]1CCCN1C(=O)n1nnn(-c2cccc(F)c2)c1=O` [Example 21, 1-(3-Fluoro-phenyl)-4-((S)-2-methoxymethyl-pyrrolidine-1-carbonyl)-1,4-dihydro-tetrazol-5-one], the EC50 in assay [1] (setting [3]) is 97.5 nM; in assay [2] (setting [4]) it was above 10000 nM.
Regarding `NC(=O)[C@@H]1CCCN1C(=O)n1nnn(-c2cccc(F)c2)c1=O` [Example 22, (S)-1-[4-(3-Fluoro-phenyl)-5-oxo-4,5-dihydro-tetrazole-1-carbonyl]-pyrrolidine-2-carboxylic acid amide], the EC50 in assay [1] (setting [3]) was 1920 nM; in assay [2] (setting [4]), above 10000 nM.
Take `CC(=O)NC1CCN(C(=O)n2nnn(-c3cccc(F)c3)c2=O)C1` (centres unmarked) [Example 23, N-{1-[4-(3-Fluoro-phenyl)-5-oxo-4,5-dihydro-tetrazole-1-carbonyl]-pyrrolidin-3-yl}-acetamide]: the EC50 in assay [1] (setting [3]) was 31.4 nM; in assay [2] (setting [4]), above 10000 nM.
Turning to `COC(=O)C1CN(C(=O)n2nnn(-c3cccc(F)c3)c2=O)C1` [Example 24, 1-[4-(3-Fluoro-phenyl)-5-oxo-4,5-dihydro-tetrazole-1-carbonyl]-azetidine-3-carboxylic acid methyl ester], the EC50 in assay [1] (setting [3]) was 122 nM; in assay [2] (setting [4]), above 10000 nM.
In the case of `Cc1noc(C2CCCN2C(=O)n2nnn(-c3cccc(F)c3)c2=O)n1` (centres unmarked) [Example 25, 1-(3-Fluoro-phenyl)-4-[2-(3-methyl-[1,2,4]oxadiazol-5-yl)-pyrrolidine-1-carbonyl]-1,4-dihydro-tetrazol-5-one], the EC50 in assay [1] (setting [3]) is 26 nM; in assay [2] (setting [4]) it was above 10000 nM.
For `CC(=O)NC1CCN(C(=O)n2nnn(-c3cccc(F)c3)c2=O)CC1` [Example 26, N-{1-[4-(3-Fluoro-phenyl)-5-oxo-4,5-dihydro-tetrazole-1-carbonyl]-piperidin-4-yl}-acetamide], in that order: 17.8 nM and above 10000 nM.
As for `O=C(CN1CCN(C(=O)n2nnn(-c3cccc(F)c3)c2=O)CC1)N1CCCC1` [Example 27, 1-(3-Fluoro-phenyl)-4-[4-(2-oxo-2-pyrrolidin-1-yl-ethyl)-piperazine-1-carbonyl]-1,4-dihydro-tetrazol-5-one], the EC50 in assay [1] (setting [3]) was 7.1 nM; in assay [2] (setting [4]) it was above 10000 nM.
For `CC1(C)CCN(C(=O)n2nnn(-c3cccc(F)c3)c2=O)CC1` [Example 28, 1-(4,4-Dimethyl-piperidine-1-carbonyl)-4-(3-fluoro-phenyl)-1,4-dihydro-tetrazol-5-one], the EC50 in assay [1] (setting [3]) was 0.8 nM; in assay [2] (setting [4]), above 10000 nM.

(Values after patent US20160083357A1, “NOVEL TETRAZOLONE DERIVATIVES” (Hoffmann-La Roche Inc., priority 2013, published 2016).)
